# Data taken from ChEMBL document CHEMBL1157873, “Synthesis and biological activity of Delta-5,6-norcantharimides: importance of the 5,6-bridge” (Eur J Med Chem, 2010).
# Key:
# HT-29 [1] = assay: Cytotoxicity against human HT-29 cells at 100 uM after 72 hrs by MTT assay; format: functional; conditions: HT-29, 72 h
# SW480 [2] = assay: Cytotoxicity against human SW480 cells at 100 uM after 72 hrs by MTT assay; format: functional; conditions: SW480, 72 h
# MCF7 [3] = assay: Cytotoxicity against human MCF7 cells at 100 uM after 72 hrs by MTT assay; format: functional; conditions: MCF7, 72 h
# A2780 [4] = assay: Cytotoxicity against human A2780 cells at 100 uM after 72 hrs by MTT assay; format: functional; conditions: A2780, 72 h
# NCI-H460 [5] = assay: Cytotoxicity against human H460 cells at 100 uM after 72 hrs by MTT assay; format: functional; conditions: NCI-H460, 72 h
# A-431 [6] = assay: Cytotoxicity against human A431 cells at 100 uM after 72 hrs by MTT assay; format: functional; conditions: A-431, 72 h
# DU-145 [7] = assay: Cytotoxicity against human DU145 cells at 100 uM after 72 hrs by MTT assay; format: functional; conditions: DU-145, 72 h
# [8] = Cytotoxicity against human BE(2)-C cells at 100 uM after 72 hrs by MTT assay; format: functional
# [9] = Cytotoxicity against human SJ-G2 cells at 100 uM after 72 hrs by MTT assay; format: functional; conditions: SJ-G2, 72 h
# [10] = Solubility of the compound; format: physicochemical
# HT-29 [11] = assay: Cytotoxicity against human HT-29 cells after 72 hrs by MTT assay; format: functional; conditions: HT-29, 72 h
# SW480 [12] = assay: Cytotoxicity against human SW480 cells after 72 hrs by MTT assay; format: functional; conditions: SW480, 72 h
# MCF7 [13] = assay: Cytotoxicity against human MCF7 cells after 72 hrs by MTT assay; format: functional; conditions: MCF7, 72 h
# A2780 [14] = assay: Cytotoxicity against human A2780 cells after 72 hrs by MTT assay; format: functional; conditions: A2780, 72 h
# NCI-H460 [15] = assay: Cytotoxicity against human H460 cells after 72 hrs by MTT assay; format: functional; conditions: NCI-H460, 72 h
# A-431 [16] = assay: Cytotoxicity against human A431 cells after 72 hrs by MTT assay; format: functional; conditions: A-431, 72 h
# DU-145 [17] = assay: Cytotoxicity against human DU145 cells after 72 hrs by MTT assay; format: functional; conditions: DU-145, 72 h
# [18] = Cytotoxicity against human BE(2)-C cells after 72 hrs by MTT assay; format: functional
# [19] = Cytotoxicity against human SJ-G2 cells after 72 hrs by MTT assay; format: functional; conditions: SJ-G2, 72 h
# [20] = Inhibition of rabbit skeletal muscle protein phosphatase 1 assessed as free phosphate ion release after 60 mins by malachite green method; set-up: species or system Oryctolagus cuniculus
# [21] = Inhibition of human red blood cells protein phosphatase 2A assessed as free phosphate ion release after 60 mins by malachite green method
SMILES,inhibition at 100 µM (HT-29 [1]) [%],inhibition at 100 µM (SW480 [2]) [%],inhibition at 100 µM (MCF7 [3]) [%],inhibition at 100 µM (A2780 [4]) [%],inhibition at 100 µM (NCI-H460 [5]) [%],inhibition at 100 µM (A-431 [6]) [%],inhibition at 100 µM (DU-145 [7]) [%],inhibition at 100 µM [8] [%],inhibition at 100 µM [9] [%],further results
NCCCC[C@@H](C(=O)O)N1C(=O)[C@H]2COC[C@H]2C1=O,30,30,37,31,27,35,17,32,23,
CCCN1C(=O)[C@H]2CNC[C@H]2C1=O,,,,,,,,,,solubility [10]: Insoluble
CCC(CO)N1C(=O)[C@H]2CNC[C@H]2C1=O (stereo partly specified),< 10,< 10,< 10,< 10,< 10,< 10,< 10,< 10,< 10,
O=C1[C@H]2COC[C@H]2C(=O)N1CCN1CCOCC1,< 10,< 10,< 10,13,< 10,< 10,< 10,< 10,< 10,
O=C(O)[C@H](Cc1c[nH]cn1)N1C(=O)[C@H]2CSC[C@H]2C1=O,10,< 10,15,< 10,10,< 10,< 10,14,< 10,
O=C(O)[C@H](Cc1c[nH]cn1)N1C(=O)[C@H]2CNC[C@H]2C1=O,10,< 10,< 10,< 10,< 10,< 10,< 10,< 10,< 10,
CN(C)CCNC(=O)[C@@H]1CNC[C@@H]1C(=O)O,,,,,,,,,,solubility [10]: Insoluble
O=C(O)[C@H](Cc1c[nH]cn1)N1C(=O)[C@H]2COC[C@H]2C1=O,26,18,20,23,21,26,11,22,15,
O=C1[C@H]2CN(Cc3ccccc3)C[C@H]2C(=O)N1CCN1CCOCC1,45,49,51,33,< 10,11,25,12,25,
NCC[C@@H](C(=O)O)N1C(=O)[C@H]2CNC[C@H]2C1=O,< 10,< 10,< 10,< 10,< 10,< 10,< 10,< 10,< 10,
CCOC(=O)CC[C@@H](C(=O)OCC)N1C(=O)[C@H]2COC[C@H]2C1=O,30,34,28,29,13,13,20,< 10,< 10,
NCCC[C@@H](C(=O)O)N1C(=O)[C@H]2COC[C@H]2C1=O,< 10,< 10,< 10,< 10,< 10,10,< 10,< 10,32,
O=C1OC(=O)C2C3CCC(O3)C12 (stereo unspecified),,,,,,,,,,GI50 (HT-29 [11]): 57 µM; GI50 (SW480 [12]): 44 µM; GI50 (MCF7 [13]): 68 µM; GI50 (A2780 [14]): 38 µM; GI50 (NCI-H460 [15]): 45 µM; GI50 (A-431 [16]): 31 µM; GI50 (DU-145 [17]): 28 µM; GI50 [18]: 43 µM; GI50 [19]: 23 µM; IC50 [20]: 7.7 µM; IC50 [21]: 2.7 µM
CC(CO)N1C(=O)[C@H]2CNC[C@H]2C1=O (stereo partly specified),15,< 10,< 10,< 10,< 10,< 10,< 10,< 10,< 10,
C[C@@]12C(=O)OC(=O)[C@]1(C)[C@H]1CC[C@@H]2O1 [CANTHARIDIN],,,,,,,,,,GI50 (HT-29 [11]): 3.2 µM; GI50 (SW480 [12]): 4.5 µM; GI50 (MCF7 [13]): 7.5 µM; GI50 (A2780 [14]): 4.4 µM; GI50 (NCI-H460 [15]): 3.3 µM; GI50 (A-431 [16]): 2.9 µM; GI50 (DU-145 [17]): 2.1 µM; GI50 [18]: 3.7 µM; GI50 [19]: 1.7 µM; IC50 [20]: 6 µM; IC50 [21]: 0.9 µM
O=C1[C@H]2CNC[C@H]2C(=O)N1CCN1CCOCC1,< 10,< 10,11,< 10,< 10,10,< 10,< 10,< 10,
CC(CO)N1C(=O)[C@H]2CN(Cc3ccccc3)C[C@H]2C1=O (stereo partly specified),15,12,22,21,14,< 10,10,10,18,
NCCC[C@@H](C(=O)O)N1C(=O)[C@H]2CNC[C@H]2C1=O,12,11,22,11,16,16,< 10,23,< 10,
CCC(CO)N1C(=O)[C@H]2COC[C@H]2C1=O (stereo partly specified),< 10,< 10,< 10,13,< 10,< 10,< 10,< 10,< 10,
NCCCC[C@@H](C(=O)O)N1C(=O)[C@H]2CSC[C@H]2C1=O,22,< 10,30,16,19,19,< 10,22,10,
CCOC(=O)C[C@@H](C(=O)OCC)N1C(=O)[C@H]2CNC[C@H]2C1=O,15,< 10,15,14,< 10,< 10,< 10,< 10,< 10,
CC(CO)N1C(=O)[C@H]2COC[C@H]2C1=O (stereo partly specified),< 10,< 10,< 10,13,10,< 10,< 10,< 10,< 10,
CCC(CO)N1C(=O)[C@H]2CN(Cc3ccccc3)C[C@H]2C1=O (stereo partly specified),14,15,< 10,15,< 10,< 10,< 10,< 10,< 10,
O=C1OC(=O)[C@@H]2CSC[C@H]12,,,,,,,,,,solubility [10]: Insoluble; IC50 [20]: > 100 µM; IC50 [21]: > 100 µM
CCOC(=O)C[C@@H](C(=O)OCC)N1C(=O)[C@H]2COC[C@H]2C1=O,16,< 10,16,15,< 10,< 10,< 10,< 10,< 10,
O=C1[C@H]2CNC[C@H]2C(=O)N1N1CCOCC1,,,,,,,,,,solubility [10]: Insoluble
O=C(O)C[C@@H](C(=O)O)N1C(=O)[C@H]2COC[C@H]2C1=O,14,< 10,13,15,< 10,< 10,< 10,< 10,< 10,
CCC(CO)N1C(=O)[C@H]2CSC[C@H]2C1=O (stereo partly specified),< 10,< 10,< 10,< 10,< 10,< 10,< 10,< 10,< 10,
